Structures can show the parent of a compound that is named as a salt.

Usually melting point stands for the temperature of the solid-liquid transition.

Data set [1] has as its target T1, Human plasma SSAO (Homo sapiens, UniProt Q16853).
T1 construct: The enzyme suspension prepared from blood plasma was pre-incubated with Compound A; from tissue; host or cells: human blood plasma
T1 sequence (Q16853 29-763 limits assumed): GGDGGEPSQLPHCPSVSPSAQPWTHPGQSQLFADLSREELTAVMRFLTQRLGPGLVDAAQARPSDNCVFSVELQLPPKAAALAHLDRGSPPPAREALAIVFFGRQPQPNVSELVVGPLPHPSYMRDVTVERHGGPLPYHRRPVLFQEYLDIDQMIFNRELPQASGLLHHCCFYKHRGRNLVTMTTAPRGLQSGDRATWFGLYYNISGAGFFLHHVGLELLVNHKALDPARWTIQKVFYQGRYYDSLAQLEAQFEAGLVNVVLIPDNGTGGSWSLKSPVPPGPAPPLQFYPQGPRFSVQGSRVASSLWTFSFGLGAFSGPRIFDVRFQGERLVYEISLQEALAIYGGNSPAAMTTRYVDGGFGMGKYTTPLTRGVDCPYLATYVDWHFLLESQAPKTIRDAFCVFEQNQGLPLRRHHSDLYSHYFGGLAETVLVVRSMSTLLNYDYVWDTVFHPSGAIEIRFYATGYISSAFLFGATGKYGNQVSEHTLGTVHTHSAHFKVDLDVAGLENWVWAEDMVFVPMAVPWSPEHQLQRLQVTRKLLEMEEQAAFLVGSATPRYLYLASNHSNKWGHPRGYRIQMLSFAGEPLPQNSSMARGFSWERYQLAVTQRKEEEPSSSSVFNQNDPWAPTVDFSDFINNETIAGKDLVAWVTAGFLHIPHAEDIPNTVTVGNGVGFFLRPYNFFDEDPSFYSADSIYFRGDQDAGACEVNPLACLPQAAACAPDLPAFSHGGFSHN
Description: VAP-1 enzyme (SSAO) activity in human plasma, radiochemical-enzyme assay with 14C-benzylamine. Type of data set: biochemical. How it is done:
(§1) VAP-1 enzyme (SSAO) activity in both human and rat plasma was determined by a radiochemical-enzyme assay using ^14C-benzylamine as artificial substrate. The enzyme suspension prepared from blood plasma was pre-incubated with Compound A in 96-well microplate at room temperature for 30 min. The enzyme suspension was then incubated with ^14C-benzylamine (2×10^−5 mol/l final concentration) in a final volume of 50 μl at 37° C. for 1 hour. The enzyme reaction was terminated by adding 2 mol/l (50 μl) citric acid. The oxidized products were directly extracted into a 200 μl toluene scintillator, and its radioactivity was measured by a scintillation spectrometer. Monoamine oxidase (MAO) and diamine oxidase (DAO, histaminase) activities were also determined by similar method using ^14C-phenylethylamine and ^14C-putrescine as substrate, respectively. Cloned DAO from cDNA libraries was used in human DAO assay. Inhibition activity was expressed as IC50 (μmol/l) value.

Data set [2] deals with T2, Rat plasma SSAO (Rattus norvegicus, UniProt O08590).
T2 construct: The enzyme suspension prepared from blood plasma was pre-incubated with Compound A; from tissue; host or cells: rat blood plasma
T2 sequence (O08590 29-763 limits assumed): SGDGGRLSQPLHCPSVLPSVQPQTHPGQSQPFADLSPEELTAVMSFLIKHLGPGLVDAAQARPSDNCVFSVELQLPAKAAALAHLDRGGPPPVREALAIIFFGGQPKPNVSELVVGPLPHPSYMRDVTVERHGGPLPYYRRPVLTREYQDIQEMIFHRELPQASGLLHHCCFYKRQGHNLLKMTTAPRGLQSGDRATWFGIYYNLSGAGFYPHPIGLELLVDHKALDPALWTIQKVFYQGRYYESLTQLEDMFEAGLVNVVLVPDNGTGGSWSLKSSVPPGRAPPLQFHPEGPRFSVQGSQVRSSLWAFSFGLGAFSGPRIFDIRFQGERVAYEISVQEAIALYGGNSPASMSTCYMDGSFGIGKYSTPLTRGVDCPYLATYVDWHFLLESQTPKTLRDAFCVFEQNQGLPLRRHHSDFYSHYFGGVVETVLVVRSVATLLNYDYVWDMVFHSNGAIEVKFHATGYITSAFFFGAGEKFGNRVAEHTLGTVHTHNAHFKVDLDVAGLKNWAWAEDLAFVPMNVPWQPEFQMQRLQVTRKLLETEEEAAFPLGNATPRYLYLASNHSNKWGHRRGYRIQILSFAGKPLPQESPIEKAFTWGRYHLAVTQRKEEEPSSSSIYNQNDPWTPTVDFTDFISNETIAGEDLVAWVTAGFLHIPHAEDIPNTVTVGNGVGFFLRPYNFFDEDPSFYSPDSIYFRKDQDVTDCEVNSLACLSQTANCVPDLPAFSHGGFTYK
Description: VAP-1 enzyme (SSAO) activity in rat plasma, radiochemical-enzyme assay with 14C-benzylamine. It is filed as biochemical. How it is done: as §1

Data set [3] concerns the target T3, plasma SSAO (Rattus norvegicus, UniProt O08590).
T3 construct: from tissue; host or cells: plasma of STZ-induced diabetic rats
T3 sequence (O08590 29-763 limits assumed): T2 sequence (O08590 29-763 limits assumed)
Description: Plasma SSAO activity in STZ-induced diabetic rats after treatment. Type of data set: in vivo. The procedure: Diabetes in rat was induced with an intraperitoneal (i.p.) injection of 65 mg/ml/kg of streptozotocin (STZ) in 2 mmol/l citrate buffer (pH 4.5) after a 20-h fast. At the same time control rat were injected with an equal volume of 2 mmol/l citrate buffer. Plasma glucose level was checked by a calorimetric method. At day 3 of STZ treatment, the rat was diagnosed with diabetes showing a plasma glucose level of 350 mg/dl.
The treatment of Compound A was given daily from 2 weeks after STZ treatment for 2 weeks. At 24 hrs after final treatment of Compound A, the vascular permeability in oculus was investigated based on the leakage of dye into the vitreous 30 min after intravenous injection of fluorescein solution (40 mg/ml/kg). Permeability was expressed as vitreous/plasma ratio of fluorescein concentration measured by a fluorophotometer. At the same time, the plasma SSAO activity was checked by the radiochemical-enzyme assay using ^14C-benzylamine (2×10^−5 mol/l final concentration) as substrate.

In turn, `CC(=O)Nc1nc(CCc2ccc(NC(=N)N)cc2)c(C(=O)NCc2ccc([N+](=O)[O-])cc2)s1.Cl` came in with a melting point of 138 to 140 °C. Compound `CC(=O)Nc1nc(CCc2ccc(C(=N)N)cc2)cs1.Cl` had a melting point of 229.5 to 231 °C. Still for that read-out and setting: as for `CC(=O)Nc1nc(CCc2ccc(CC(=N)N)cc2)cs1` (as salt: hydrochloride) [Production Example 59, N-(4-{2-[4-(2-amino-2-iminoethyl)phenyl]ethyl}-1,3-thiazol-2-yl)acetamide], the figure is 190.5 to 192 °C. As to `CC(=O)Nc1nc(CCc2ccc(NC(=N)N)cc2)cs1` [Compound A, N-{4-[2-(4-{[amino(imino)methyl]amino}phenyl)ethyl]-1,3-thiazol-2-yl}acetamide], the “Inhibition of enzyme activity of human plasma SSAO (in words)” value in data set [1] was “completely inhibited”. For the same compound, the “Inhibition of enzyme activity of rat plasma SSAO (in words)” value in data set [2] is “completely inhibited”. The “Plasma SSAO activity” value in data set [3] (STZ diabetic rats, daily treatment for 2 weeks from 2 weeks after STZ, 14C-benzylamine 2×10^−5 mol/l, mean±S.E.M., 10 rats) was found to be 2.51 ± 0.26 pmol/min/mL. In addition, the “Effect on increased plasma SSAO activity in diabetic rats (in words)” value in data set [3] (diabetic rats at 4 weeks after STZ treatment) is on record as “dose-dependent inhibition of the increased plasma SSAO activity”. For the compound `CC(=O)Nc1nc(CCc2ccc(NC3=NCCS3)cc2)cs1` [Production Example 2, N-(4-(2-(4-(4,5-dihydro-1,3-thiazol-2-ylamino)phenyl)ethyl)-1,3-thiazol-2-yl)acetamide], the melting point is 218 to 219.5 °C. On to `CC(=O)Nc1nc(CCc2ccc(CON)cc2)cs1` [Production Example 16, N-[4-(2-{4-[(aminooxy)methyl]phenyl}ethyl)-1,3-thiazol-2-yl]acetamide], for which the melting point lay in the range of 130 to 130.5 °C. Still for that read-out and setting: as for `CC(=O)Nc1nc(CCc2ccc(NC(=N)N)cc2)c(Cc2ccc(S(C)(=O)=O)cc2)s1` [Production Example 48, N-{4-[2-(4-{[amino(imino)methyl]amino}phenyl)ethyl]-5-[4-(methylsulfonyl)benzyl]-1,3-thiazol-2-yl}acetamide], the figure is 228 to 229.5 °C. Same read-out and setting: in the case of `CC(=N)Nc1ccc(CCc2nc(NC(C)=O)sc2Cc2ccc(S(C)(=O)=O)cc2)cc1` [Production Example 56, N-{4-{2-[4-(ethanimidoylamino)phenyl]ethyl}-5-[4-(methylsulfonyl)benzyl]-1,3-thiazol-2-yl}acetamide] it was 81.5 to 83 °C. Still for that read-out and setting: in the case of `CC(=O)Nc1nc(CCc2ccc(NC(=N)NN)cc2)cs1` [Production Example 58, N-{4-[2-(4-{[hydrazino(imino)methyl]amino}phenyl)ethyl]-1,3-thiazol-2-yl}acetamide] it was 216.5 to 218 °C; in that of `CC(=O)Nc1nc(CCc2ccc(C(=O)NC(=N)N)cc2)c(Cc2ccc(S(C)(=O)=O)cc2)s1` [Production Example 106, 4-(2-{2-(acetylamino)-5-[4-(methylsulfonyl)benzyl]-1,3-thiazol-4-yl}ethyl)-N-[amino(imino)methyl]benzamide], 108 to 109.5 °C.

The values are drawn from patent US7442715B2, “Thiazole derivatives” (Astellas Pharma Inc., priority 2003, dated 2008).
